The results in this text go back to US8598129B2, “Topical application of ivermectin for the treatment of dermatological conditions/afflictions” (Galderma S.A., priority 2003, dated 2013).

This series in a line: solubility of ivermectin in various solvents. Format: physicochemical. The text has this:
The table below illustrates the solubility of ivermectin in various solvents: […]

On to Ivermectin, for which the “Maximum % solubility of ivermectin in the solvent concerned (weight/weight)” value by setting is: (solvent: N-methyl-2-pyrrolidone) 58.13 % (weight/weight); (solvent: Propylene glycol) 21.83 % (weight/weight); (solvent: Propylene glycol/oleyl alcohol (4 parts/2 parts)) 27.31 % (weight/weight); (solvent: Triacetin) 7.22 % (weight/weight).
